2 compounds from US20250109154A1, “LYSOPHOSPHATIDYLSERINE ANALOGUE, AND LYSOPHOSPHATIDYLSERINE ANALOGUE-CONTAINING PHAMACEUTICAL COMPOSITION FOR TREATING OR PREVENTING FIBROSIS” (THE UNIVERSITY OF TOKYO, priority 2022, published 2025) can be followed below.

Experiment [1] deals with LX-2 cells (human hepatic stellate cells). Description: Expression of marker genes for fibrosing in LX-2 cells (quantitative real time PCR). The settings on record: 5 μM, co-cultured 48 hours, vs DMSO, standardized by GAPDH, FIG. 1. The class given is cell-based. On the procedure:
LX-2 cells (human hepatic stellate cells) (sigma-aldrich, reference document: Gut 2005, 54 (1), 142-151) were seeded in 12-well tissue culture plates (5×10^4 cells/well) and cultured in Dulbecco's Modified Eagle's Medium (high glucose) (Thermo Fisher Scientific) together with 10% FBS (Fetal Bovine Serum) and 100× penicillin-streptomycin-glutamine (PSG) in a 5% CO2 humidified incubator at 37° C. After 48 hours, the cells were stimulated with dimethyl sulfoxide (DMSO), Compound (II), and Compound (III) (5 μM) (final concentration of DMSO was 0.02%) and co-cultured for another 48 hours. Thereafter, the cells were lysed using a lysis buffer (MACHEREY-NAGEL GmbH & Co. KG).
Total RNA of LX-2 cells was extracted using NucleoSpin RNA Plus kit (Takara Bio) according to the product protocol. Purified RNA was reverse transcribed using High-Capacity cDNA RT Kits (Thermo Fisher Scientific) according to the product protocol. PCR was performed using TB Green Premix Ex Taq II (Takara Bio) and monitored with a LightCycler96 (Roche Life Science). The number of transcripts was standardized by the number of GAPDHs, which are housekeeping genes.
On the technique in general: Quantitative PCR measures a nucleic acid by following its amplification.

Experiment [2] has as its system LX-2 cells. Description: Immunostaining of αSMA and CollagenI in LX-2 cells. The class given is cell-based, human. To be noted: 3 μM, vs DMSO group, FIG. 2. On the procedure: LX-2 cells were cultured in the same manner as in Example 1, except that the concentration of Compound (II) was changed to 3 μM.
LX-2 cells were fixed in Mildform (registered trademark) 10N (FUJIFILM Wako Pure Chemical Corporation) at room temperature for 10 minutes and washed with PBS. Membranes were permeabilized using 0.2% Triton X-100. The cells were blocked at room temperature for one hour using 5% skim milk or 0.3% BSA/PBS. After washing with PBS, αSMA (Dako), CollagenI (Abcam), and Hoechst33342 (Sigma-Aldrich) were each added as a first antibody, and the mixture was reacted overnight at 4° C. On the next day, the cells were washed with PBS and then reacted with Invitrogen Alexa Fluor (theromo Fisher) as a second antibody. The cells were observed under a fluorescence microscope (Keyence BZ-X810).

Experiment [3] relates to quiescent hepatic stellate cell-like cells (qHSC-like cells). Description: Expression of marker genes for fibrosing in quiescent hepatic stellate cell-like cells derived from human iPS cells (quantitative real time PCR). To be noted: 1 or 2 μM, 4 hours of incubation, FIG. 3. The class given is cell-based. On the procedure: Quiescent hepatic stellate cell-like cells (qHSC-like cells) were induced by the methods described in Koui et al., Stem Cell Reports 2021, PCT/JP2020/006147, and PCT/JP2016/58411. qHSC-like cells derived from ACTA2-RFP […] iPS cells were seeded in a collagen-coated 12-well plate at a density of 7×10^4 cells/well in Stempro-34 SFM medium (Gibco medium, theromo Fisher) supplemented with Y27632 (10 μM) and 100×PSG. After 24 hours of culture, Compound (II) was dissolved in Stempro-34 SFM medium (100×PSG), and then the solution was added such that the final concentration of Compound (II) was 1 or 2 μM. After 4 hours of incubation, the cells were lysed, and total RNA was extracted using NucleoSpin RNA Plus kit (Takara Bio).
Total RNA derived from iPS cell-derived qHSC was extracted using NucleoSpin RNA Plus kit (Takara Bio) according to the product protocol. Purified RNA was reverse transcribed using High-Capacity cDNA RT Kits (Thermo Fisher Scientific) according to the product protocol. PCR was performed using TB Green Premix Ex Taq II (Takara Bio) and monitored with a LightCycler96 (Roche Life Science). The number of transcripts was standardized by the number of GAPDHs, which are housekeeping genes.

The subject of experiment [4] is mouse model of liver fibrosis. Nature of the experiment: Mouse model of liver fibrosis (thioacetamide): liver immunohistochemistry and quantitative real time PCR. The experiment is classed as in vivo, C57BL/6J mice. The settings on record: TAA mouse, 20 mg/kg subcutaneously every 24 hours for 14 days. On the procedure:
Seven-week-old C57BL/6J mice were purchased from CLEA Japan, Inc. (Tokyo, Japan). All animals were reared in a standard specific pathogen-free room in the animal facility of the Institute for Quantitative Biosciences, University of Tokyo. For a mouse model of liver fibrosis, thioacetamide (TAA) was administered together with drinking water (0.06% v/v), starting 7 weeks before the administration of the compound. After 7 weeks of rearing with TAA-containing water, a vehicle (200 μL of PBS, containing 5% DMSO) or 20 mg/kg (200 μL of PBS, containing 5% DMSO) of Compound (II) was subcutaneously administered every 24 hours for a total period of 14 days. The mice were sacrificed 24 hours after the last injection.
Liver tissue samples were fixed overnight at 4° C. with Zamboni's fixative (FUJIFILM Wako Pure Chemical Corporation) or Mildform (registered trademark) 10N (FUJIFILM Wako Pure Chemical Corporation). For immunofluorescence staining, the liver tissue fixed with Zamboni's fixative was washed with PBS, and the medium was replaced with a 30% (w/v) sucrose solution. Frozen tissue was prepared by embedding the tissue in a Tissue-Tek (registered trademark) O.C.T. compound (Sakura Finetek Japan) and freezing the resultant in liquid nitrogen. Liver cryosections (8 μm) were mounted on slide glasses, rehydrated, and autoclaved in Target Retrieval Solution (lx, Dako) at 90° C. for 20 min for epitope retrieval. The sections were blocked with 0.3% BSA/PBS for 1 hour at room temperature. After washing with PBS, αSMA (Dako), CollagenI (Bio-Rad Laboratories, Inc.), Ki67 (Santa Cruz), and Hoechst33342 (Sigma-Aldrich) were each added as a first antibody, and the mixture was reacted overnight at 4° C. On the next day, the sections were washed with PBS and then reacted with Invitrogen Alexa Fluor (theromo Fisher) as a second antibody. The section specimens were hermetically sealed and observed with a fluorescence microscope (Keyence BZ-X810). The range of positive CollagenI was quantified using Ratiocollagen I=Areacollagen I/Areatotal.
Total RNA of mouse liver tissue was extracted using NucleoSpin RNA Plus kit (Takara Bio) according to the product protocol. Purified RNA was reverse transcribed using High-Capacity cDNA RT Kits (Thermo Fisher Scientific) according to the product protocol. PCR was performed using TB Green Premix Ex Taq II (Takara Bio) and monitored with a LightCycler96 (Roche Life Science). The number of transcripts was standardized by the number of GAPDHs, which are housekeeping genes.

The test system of experiment [5] is primary cultured human renal fibroblasts. Description: Expression of marker genes for fibrosing in primary cultured human renal fibroblasts (quantitative real time PCR). The experiment is classed as cell-based. The settings on record: 48 hours. The procedure:
(§1) Primary cultured human renal fibroblasts (ATCC), primary cultured human lung fibroblasts (Cosmo Bio), or primary cultured human pancreatic fibroblasts (K.A.C.) were each seeded in 12-well tissue culture plates (5×10^4 cells/well) and cultured in Minimum Essential Medium (lx) (Gibco, Thermo Fisher Scientific) together with 10% FBS (Fetal Bovine Serum) and 100× antifungal antibiotic solution (Sigma-Aldrich) in a 5% CO2 humidified incubator at 37° C. After 48 hours, the cells were stimulated with dimethyl sulfoxide (DMSO), Compound (II), and/or Compound (III) (5 μM) (final concentration of DMSO was 0.02%) and co-cultured for another 48 hours. Cells that are activated by TGFβ1 (FUJIFILM Wako Pure Chemical Corporation), a fibroblast growth and activation factor, were stimulated with TGFβ1 (20 ng/ml) 72 hours after seeding, and after 48 hours, the cells were stimulated with dimethyl sulfoxide (DMSO), Compound (II), and/or Compound (III) (5 μM) (final concentration of DMSO was 0.02%) and co-cultured for another 48 hours. Thereafter, the cells were lysed using a lysis buffer (MACHEREY-NAGEL GmbH & Co. KG).
(§2) Quantitative real-time PCR analysis was performed in the same manner as in Example 5.

The subject of experiment [6] is primary cultured human lung fibroblasts. Nature of the experiment: Expression of marker genes for fibrosing in primary cultured human lung fibroblasts (quantitative real time PCR). The experiment is classed as cell-based. To be noted: 48 hours. The procedure: as §1, §2
The subject of experiment [7] is primary cultured human pancreatic fibroblasts. Description: Expression of marker genes for fibrosing in primary cultured human pancreatic fibroblasts (quantitative real time PCR). The experiment is classed as cell-based. To be noted: 48 hours. On the procedure:
as §1, §2

In experiment [8] the test system is primary cultured human skin fibroblasts. Description: Expression of marker genes for fibrosing in primary cultured human skin fibroblasts (quantitative real time PCR). The class given is cell-based. To be noted: 48 hours. The procedure: Primary cultured human skin fibroblasts (Tokyo University School of Medicine) were seeded in 12-well tissue culture plates (7×10^4 cells/well) and cultured in Dulbecco's Modified Eagle's Medium (high glucose) together with 10% FBS (Fetal Bovine Serum) and 100× penicillin-streptomycin-glutamine (PSG) in a 5% CO2 humidified incubator at 37° C. After 48 hours, the cells were stimulated with dimethyl sulfoxide (DMSO), Compound (II), and Compound (III) (5 μM) (final concentration of DMSO was 0.02%) and co-cultured for another 48 hours. Cells activated with TGFβ1 (FUJIFILM Wako Pure Chemical Corporation) were stimulated with TGFβ1 (20 ng/ml) 72 hours after seeding, and after 48 hours, the cells were stimulated with dimethyl sulfoxide (DMSO), Compound (II), and Compound (III) (5 μM) (final concentration of DMSO was 0.02%) and co-cultured for another 48 hours. Thereafter, the cells were lysed using a lysis buffer (MACHEREY-NAGEL GmbH & Co. KG).
as §2

The mark [9] stands for this setting: not stimulated with TGFβ1, 5 μM, FIG. 7.
The mark [10] stands for this setting: stimulated with TGFβ1 (20 ng/ml), 5 μM, FIG. 8.
Where [11] appears, read: not stimulated with TGFβ1, 5 μM, FIG. 9.
Where [12] appears, read: stimulated with TGFβ1 (20 ng/ml), 5 μM, FIG. 10.
Setting [13] is: not stimulated with TGFβ1, 5 μM, FIG. 11.
The mark [14] stands for this setting: stimulated with TGFβ1 (20 ng/ml), 5 μM, FIG. 12.
Where [15] appears, read: not stimulated with TGFβ1, 5 μM, FIG. 13.
Setting [16] is: stimulated with TGFβ1 (20 ng/ml), 5 μM, FIG. 14.

Each structure is given as a SMILES string.

Turning to `CC(C)(C)c1cc(-c2ccc(Oc3ccccc3CCC(=O)OCCCOP(=O)(O)OCC(N)C(=O)O)cc2)cc(C(C)(C)C)c1` (stereo not drawn) [Compound (II)], the “expression levels of the marker genes for fibrosing (ACTA2, COL1A1, COL3A1)” value (from here on “expression levels … (ACTA2, COL1A1, COL3A1)”) in experiment [1], in experiment [3], in experiment [5] (setting [9]), in experiment [5] (setting [10]), in experiment [6] (setting [11]) and in experiment [6] (setting [12]) was “decreased” throughout. The “expression levels … (ACTA2, COL1A1, COL3A1)” value in experiment [7] (setting [13]), in experiment [7] (setting [14]), in experiment [8] (setting [15]) and in experiment [8] (setting [16]) was “decreased” each time. Moreover, the “expression of αSMA and CollagenI (immunostaining)” value in experiment [2] is on record as “suppressed”. The “positive range of CollagenI in liver tissue sections (Area collagen I/Area total)” value in experiment [4] (vs vehicle, FIG. 4) is given as “small”. The “Ki67 staining of liver tissue sections (cell proliferation capability)” value in experiment [4] (vs vehicle, FIG. 5) is on record as “larger area stained in red”. Moreover, in experiment [4] (vs vehicle, FIG. 5), the “expression of αSMA and CollagenI in liver tissue sections (immunostaining)” value was “suppressed”. Also, the “expression levels of the marker genes for fibrosing (COL1A1, COL3A1) in liver tissue” value in experiment [4] (FIG. 6) is “decreased”.
Turning to `NC(COP(=O)(O)OCCCOC(=O)CCc1ccccc1Oc1ccc(-c2cc(-c3ccccc3)cc(-c3ccccc3)c2)cc1)C(=O)O` (stereo not drawn) [Compound (III)], the “expression levels … (ACTA2, COL1A1, COL3A1)” value in experiment [1], in experiment [5] (setting [9]), in experiment [5] (setting [10]), in experiment [6] (setting [11]), in experiment [6] (setting [12]) and in experiment [7] (setting [13]) was “decreased” each time. Further, the “expression levels … (ACTA2, COL1A1, COL3A1)” value in experiment [7] (setting [14]), in experiment [8] (setting [15]) and in experiment [8] (setting [16]) was “decreased” in each case.
